The structures appear in SMILES notation. Some results are limits rather than exact numbers.

In one assay the test system is Triple negative breast cancer cell line CAL51. As to the kind of experiment: Cell Titer Glo proliferation assay, CAL51. The assay is classed as cell-based. The settings on record: Homo sapiens, CAL-51; CAL51 cell proliferation (Table 1); read-out: Act. Level. Here is the method:
Cell Titer Glo Proliferation Assay.
Triple negative breast cancer cell line CAL51 was purchased from DSMZ. […] Allcell lines were maintained in growth media consisting of 90% high glucose Dulbecco's Modified Eagle Medium or RPMI1640 (Invitrogen), 10% fetal bovine serum (Hyclone), and 2 mM L-glutamine (Invitrogen). […] After overnight culture, compound stock (30 mM) was diluted serially in DMSO, further diluted in growth media, and was added to each well as a 10× concentrated solution in a volume of 11 μL, mixed, and allowed to incubate with cells. The compound vehicle (DMSO) was maintained at a final concentration of 0.2% in all wells. After 72 h, 100 μL of Cell Titer Glo solution (Promega) was added to each well of the 96-well plate. The plate was placed on a shaker for 2 minutes. After 10 minutes incubation, the luminescence signal was detected with Envision microplate reader (Perkin Elmer).
A general note: Cellular ATP, detected with luciferase, serves as a proxy for viable cell number.
As to `COc1nc(Nc2ccc(C(=O)N(C)C)cc2C)nc2[nH]cc(-c3ccc4[nH]c(C)nc4c3)c12` [Example 399, 4-(4-methoxy-5-(2-methyl-1H-benzo[d]imidazol-5-yl)-7H-pyrrolo[2,3-d]pyrimidin-2-ylamino)-N,N,3-trimethylbenzamide], the IC50 was under 100 nM.

Consider `COc1nc(Nc2ccc(C(=O)N(C)C)cc2C)nc2[nH]cc(-c3ccc4c(C)noc4c3)c12` [Example 400, 4-(4-methoxy-5-(3-methylbenzo[d]isoxazol-6-yl)-7H-pyrrolo[2,3-d]pyrimidin-2-ylamino)-N,N,3-trimethylbenzamide], for which the IC50 was under 100 nM.

Still in this assay, the particulars now being: Homo sapiens, CAL-51; CAL51 cell proliferation, Cell Titer Glo; read-out: Act. Level.
`CNC(=O)c1ccc(-c2c[nH]c3nc(Nc4cnn(CC(C)(C)O)c4Cl)nc(OC4CCC4)c23)cc1` [Example 372, 4-(2-(5-chloro-1-(2-hydroxy-2-methylpropyl)-1H-pyrazol-4-ylamino)-4-cyclobutoxy-7H-pyrrolo[2,3-d]pyrimidin-5-yl)-N-methylbenzamide]: the IC50 was under 100 nM. As for `CNC(=O)c1ccc(-c2c[nH]c3nc(Nc4ccc(C(=O)NC5COC5)cc4OC)nc(OCCOC)c23)cc1` [Example 373, 3-methoxy-4-(4-(2-methoxyethoxy)-5-(4-(methylcarbamoyl)phenyl)-7H-pyrrolo[2,3-d]pyrimidin-2-ylamino)-N-(oxetan-3-yl)benzamide], the IC50 was 100 to 400 nM. Same read-out and setting: then `COc1cc(C(=O)NC2CN(C)C2)ccc1Nc1nc(O[C@H]2CCOC2)c2c(-c3ccc4nc(C)oc4c3)c[nH]c2n1` [Example 374, (S)-3-methoxy-N-(1-methylazetidin-3-yl)-4-(5-(2-methylbenzo[d]oxazol-6-yl)-4-(tetrahydrofuran-3-yloxy)-7H-pyrrolo[2,3-d]pyrimidin-2-ylamino)benzamide], with under 100 nM; and `CNC(=O)c1ccc(-c2c[nH]c3nc(Nc4ccc(C(=O)NC5CN(C)C5)cc4OC)nc(O[C@H]4CCOC4)c23)cc1` [Example 375, (S)-3-methoxy-N-(1-methylazetidin-3-yl)-4-(5-(4-(methylcarbamoyl)phenyl)-4-(tetrahydrofuran-3-yloxy)-7H-pyrrolo[2,3-d]pyrimidin-2-ylamino)benzamide], with 400 to 1000 nM; and `CNC(=O)c1ccc(-c2c[nH]c3nc(Nc4ccc(C(=O)NC5COC5)cc4OC)nc(O[C@H]4CCOC4)c23)cc1` [Example 376, (S)-3-methoxy-4-(5-(4-(methylcarbamoyl)phenyl)-4-(tetrahydrofuran-3-yloxy)-7H-pyrrolo[2,3-d]pyrimidin-2-ylamino)-N-(oxetan-3-yl)benzamide], with under 100 nM. For the compound `Cc1nc2ccc(-c3c[nH]c4nc(Nc5cnn(C6CCOCC6)c5Cl)nc(OC5CCCC5)c34)cc2o1` [Example 377, N-(5-chloro-1-(tetrahydro-2H-pyran-4-yl)-1H-pyrazol-4-yl)-4-(cyclopentyloxy)-5-(2-methylbenzo[d]oxazol-6-yl)-7H-pyrrolo[2,3-d]pyrimidin-2-amine], the IC50 was under 100 nM.

For the compound `COCCn1ncc(Nc2nc(OC3CCCC3)c3c(-c4ccc5nc(C)oc5c4)c[nH]c3n2)c1Cl` [Example 378, N-(5-chloro-1-(2-methoxyethyl)-1H-pyrazol-4-yl)-4-(cyclopentyloxy)-5-(2-methylbenzo[d]oxazol-6-yl)-7H-pyrrolo[2,3-d]pyrimidin-2-amine], the IC50 was under 100 nM. On the same count and under the same terms, then `COc1cc(C(=O)NC2COC2)ccc1Nc1nc(OC2(C)CCC2)c2c(-c3ccc4nc(C)oc4c3)c[nH]c2n1` [Example 379, 3-methoxy-4-(5-(2-methylbenzo[d]oxazol-6-yl)-4-(1-methylcyclobutoxy)-7H-pyrrolo[2,3-d]pyrimidin-2-ylamino)-N-(oxetan-3-yl)benzamide], with under 100 nM; and `COc1cc(C(=O)NC2COC2)ccc1Nc1nc(OC)c2c(-c3ccc4c(C)noc4c3)c[nH]c2n1` [Example 380, 3-methoxy-4-(4-methoxy-5-(3-methylbenzo[d]isoxazol-6-yl)-7H-pyrrolo[2,3-d]pyrimidin-2-ylamino)-N-(oxetan-3-yl)benzamide], with 100 to 400 nM.

Regarding `COc1cc(C(=O)NC2COC2)ccc1Nc1nc(OC)c2c(-c3ccnc(F)c3)c[nH]c2n1` [Example 381, 4-(5-(2-fluoropyridin-4-yl)-4-methoxy-7H-pyrrolo[2,3-d]pyrimidin-2-ylamino)-3-methoxy-N-(oxetan-3-yl)benzamide], the IC50 fell in the range of 100 to 400 nM. For the compound `COc1cc(C(=O)NC2COC2)ccc1Nc1nc(OC)c2c(-c3cnn(C)c3)c[nH]c2n1` [Example 382, 3-methoxy-4-(4-methoxy-5-(1-methyl-1H-pyrazol-4-yl)-7H-pyrrolo[2,3-d]pyrimidin-2-ylamino)-N-(oxetan-3-yl)benzamide], the IC50 was in the range of 100 to 400 nM.

With `COc1cc(C(=O)NC2COC2)ccc1Nc1nc(OC)c2c(-c3ccnc(C)c3)c[nH]c2n1` [Example 383, 3-methoxy-4-(4-methoxy-5-(2-methylpyridin-4-yl)-7H-pyrrolo[2,3-d]pyrimidin-2-ylamino)-N-(oxetan-3-yl)benzamide], the IC50 is under 100 nM. Take `COc1cc(C(=O)NC2COC2)ccc1Nc1nc(OC)c2c(-c3cc(C)nc(C)c3)c[nH]c2n1` [Example 384, 4-(5-(2,6-dimethylpyridin-4-yl)-4-methoxy-7H-pyrrolo[2,3-d]pyrimidin-2-ylamino)-3-methoxy-N-(oxetan-3-yl)benzamide]: the IC50 was under 100 nM. On to `CCn1ncc(Nc2nc(OC3CCCC3)c3c(-c4ccc5nc(C)oc5c4)c[nH]c3n2)c1Cl` [Example 385, N-(5-chloro-1-ethyl-1H-pyrazol-4-yl)-4-(cyclopentyloxy)-5-(2-methylbenzo[d]oxazol-6-yl)-7H-pyrrolo[2,3-d]pyrimidin-2-amine], for which the IC50 was 100 to 400 nM. Same read-out and setting: then `COCCOc1nc(Nc2ccc(C(=O)NC3CN(C)C3)cc2OC)nc2[nH]cc(-c3ccc4nc(C)oc4c3)c12` [Example 386, 3-methoxy-4-(4-(2-methoxyethoxy)-5-(2-methylbenzo[d]oxazol-6-yl)-7H-pyrrolo[2,3-d]pyrimidin-2-ylamino)-N-(1-methylazetidin-3-yl)benzamide], with 1000 to 10000 nM; and `COc1cc(C(=O)NC2COC2)ccc1Nc1nc(OC)c2c(-c3cn(C)nc3C)c[nH]c2n1` [Example 387, 4-(5-(1,3-dimethyl-1H-pyrazol-4-yl)-4-methoxy-7H-pyrrolo[2,3-d]pyrimidin-2-ylamino)-3-methoxy-N-(oxetan-3-yl)benzamide], with 1000 to 10000 nM; and `CNC(=O)c1ccc(Nc2nc(OC)c3c(-c4ccc5c(C)noc5c4)c[nH]c3n2)c(OC)c1` [Example 388, 3-methoxy-4-(4-methoxy-5-(3-methylbenzo[d]isoxazol-6-yl)-7H-pyrrolo[2,3-d]pyrimidin-2-ylamino)-N-methylbenzamide], with 100 to 400 nM.

Consider `COc1cc(-c2c[nH]c3nc(Nc4ccc(C(=O)NC5COC5)cc4OC)nc(OC)c23)ccn1` [Example 389, 3-methoxy-4-(4-methoxy-5-(2-methoxypyridin-4-yl)-7H-pyrrolo[2,3-d]pyrimidin-2-ylamino)-N-(oxetan-3-yl)benzamide], for which the IC50 was under 100 nM. Regarding `COc1nc(Nc2ccc(C(=O)N(C)C)cc2C)nc2[nH]cc(-c3ccc(F)cc3)c12` [Example 390, 4-(5-(4-fluorophenyl)-4-methoxy-7H-pyrrolo[2,3-d]pyrimidin-2-ylamino)-N,N,3-trimethylbenzamide], the IC50 was 1000 to 10000 nM. Still for that read-out and setting: to `COc1ccc(-c2c[nH]c3nc(Nc4ccc(C(=O)N(C)C)cc4C)nc(OC)c23)cc1` [Example 391, 4-(4-methoxy-5-(4-methoxyphenyl)-7H-pyrrolo[2,3-d]pyrimidin-2-ylamino)-N,N,3-trimethylbenzamide] belongs 100 to 400 nM; to `COc1cc(C(=O)N(C)C)ccc1Nc1nc(OC)c2c(-c3ccncc3)c[nH]c2n1` [Example 392, 3-methoxy-4-(4-methoxy-5-(pyridin-4-yl)-7H-pyrrolo[2,3-d]pyrimidin-2-ylamino)-N,N-dimethylbenzamide], under 100 nM.

For the compound `COc1nc(Nc2cn(C)nc2C)nc2[nH]cc(-c3ccncc3)c12` [Example 393, N-(1,3-dimethyl-1H-pyrazol-4-yl)-4-methoxy-5-(pyridin-4-yl)-7H-pyrrolo[2,3-d]pyrimidin-2-amine], the IC50 was 100 to 400 nM. As for `COc1cc(C(=O)NC2COC2)ccc1Nc1nc(OC)c2c(-c3ccnc(Cl)c3)c[nH]c2n1` [Example 394, 4-(5-(2-chloropyridin-4-yl)-4-methoxy-7H-pyrrolo[2,3-d]pyrimidin-2-ylamino)-3-methoxy-N-(oxetan-3-yl)benzamide], the IC50 is 100 to 400 nM.

With `COc1cc(C(=O)NC2COC2)ccc1Nc1nc(OC)c2c(-c3ccncn3)c[nH]c2n1` [Example 395, 3-methoxy-4-(4-methoxy-5-(pyrimidin-4-yl)-7H-pyrrolo[2,3-d]pyrimidin-2-ylamino)-N-(oxetan-3-yl)benzamide], the IC50 was 1000 to 10000 nM. Regarding `COc1nc(Nc2ccc(C(=O)NC3COC3)cc2C)nc2[nH]cc(-c3ccncc3)c12` [Example 396, 4-(4-methoxy-5-(pyridin-4-yl)-7H-pyrrolo[2,3-d]pyrimidin-2-ylamino)-3-methyl-N-(oxetan-3 yl)benzamide], the IC50 fell in the range of 100 to 400 nM. Same read-out and setting: to `COc1nc(Nc2ccc(C(=O)N(C)C)cc2C)nc2[nH]cc(-c3ccc(-c4ncc[nH]4)cc3)c12` [Example 397, 4-(5-(4-(1H-imidazol-2-yl)phenyl)-4-methoxy-7H-pyrrolo[2,3-d]pyrimidin-2-ylamino)-N,N,3-trimethylbenzamide] belongs under 100 nM; to `COc1nc(Nc2ccc(C(=O)N(C)C)cc2C)nc2[nH]cc(-c3cnn(C)c3)c12` [Example 398, 4-(4-methoxy-5-(1-methyl-1H-pyrazol-4-yl)-7H-pyrrolo[2,3-d]pyrimidin-2-ylamino)-N,N,3-trimethylbenzamide], 400 to 1000 nM.
